Assay results taken from patent US6593339B1, “Use of compounds as antibacterial agents” (AstraZeneca AB, priority 1999, dated 2003).

System: Helicobacter pylori Reference Strain NCTC 11 637
Test: Agar well diffusion test: inhibition zones around wells on blood agar plates
Format: cell-based
Conditions: 30 μl per 3 mm well, incubated four days
Procedure: Strain: Helicobacter pylori Reference Strain NCTC 11 637 (National Type Culture Collection, from Smittskyddsinstitutet in Solna, Sweden), an Antibiotic Sensitive Reference Strain
Helicobacter pylori was grown on blood agar plates, having a diameter of 90 mm. for three days under microaerophilic conditions at 37° C. The bacteria were suspended in PBS (phosphate buffer saline) to approximately 10^8 cfu/ml. Approximately 2 ml of the suspension was added to one agar plate and spread even on the surface of the agar. Overflow was removed with a syringe. Wells, like small holes, 3 mm in diameter, were made in the agarplate by removing agar. Three wells per plate were made. […] 30 μl of the solution was added to the wells. The plates were incubated for four days before they were checked for inhibition zones around the wells.

C[S+](C)[O-] [DMSO, Di-methyl-sulphate-oxide]
inhibition zone around each well (solution 20 μg/ml): No inhibition zones

COc1ccc2cc([C@H](C)C(=O)O)ccc2c1 [Naproxen]
zone of inhibition at 10000 µg/mL (Helicobacter pylori, NCTC11, 96 h, stock solution 10000 μg/ml, read-out: inhibition zone around each well): 16.6 mm | inhibition zone around each well (stock solution 100 μg/ml): No inhibition zones | inhibition zone around each well (stock solution 1000 μg/ml): No inhibition zones

CC(=O)N[C@H](C(=O)O)C(C)(C)SN=O [SNAP, S-nitroso-N-acetyl-penicillamin]
inhibition zone around each well (stock solution 10000 μg/ml): No inhibition zones

COc1ccc2cc(C(C)C(=O)OCCCCO[N+](=O)[O-])ccc2c1 (stereo not drawn) [formula Ia]
zone of inhibition at 100 µg/mL (Helicobacter pylori, NCTC11, 96 h, stock solution 100 μg/ml, read-out: inhibition zone around each well): 10.4 mm | zone of inhibition at 1000 µg/mL (Helicobacter pylori, NCTC11, 96 h, stock solution 1000 μg/ml, read-out: inhibition zone around each well): 13 mm | inhibition zone around each well (stock solution 10000 μg/ml): large | inhibition zone around each well (stock solution 100000 μg/ml): large
